Holding throughout (assay): agar diffusion antibacterial susceptibility assay
On the technique in general: A growth-free zone around the sample is the usual read-out of agar diffusion tests.

One test has as its system B. subtilis ATCC 6633. It is filed as cell-based, Bacillus subtilis. The following applies: ciprofloxacin in H2O, concentration per footnote mark c. The source says:
(§1) Representative Gram-positive strains included Bacillus subtilis, Staphylococcus aureus and Micrococcus luteus. The Gram-negative strains studied included Pseudomonas aeruginosa (a wild type K799/wt and a penetration mutant strain K799/61), Escherichia coli, and Acinetobacter baumannii.

The next test has as its system M. luteus ATCC 10240. It is filed as cell-based, Micrococcus luteus. The following applies: ciprofloxacin in H2O, concentration per footnote mark b.
Source text: as §1

In the next test the test system is E. coli X580. It counts as cell-based, Escherichia coli. The following applies: ciprofloxacin in H2O, concentration per footnote mark d.
Source text: as §1

The test system of another test is S. aureus SG 511. It is filed as cell-based, Staphylococcus aureus. The settings on record: ciprofloxacin in H2O, concentration per footnote mark b.
Source text: as §1

Another test concerns A. baumannii ATCC 17961. It counts as cell-based, Acinetobacter baumannii. The following applies: ciprofloxacin in H2O, concentration per footnote mark b; 100 μM 2,2′-bipyridine. From the text: The siderophore-ciprofloxacin conjugates 13 and 23 were first evaluated for their ability to inhibit the growth of bacteria using the agar well diffusion test. Representative Gram-positive strains included Bacillus subtilis, Staphylococcus aureus and Micrococcus luteus. The Gram-negative strains studied included Pseudomonas aeruginosa (a wild type K799/wt and a penetration mutant strain K799/61), Escherichia coli, and Acinetobacter baumannii.

`O=C(O)c1cn(C2CC2)c2cc(N3CCNCC3)c(F)cc2c1=O` [Ciprofloxacin, ciprofloxacin]: the “Diameter of growth inhibition zones” value in the test on B. subtilis ATCC 6633 is on record as 28^c mm; with M. luteus ATCC 10240 it was 12P^b; with E. coli X580, 31^d mm; in the test with S. aureus SG 511 it was 28^b mm; in the test with A. baumannii ATCC 17961, 15p^b.
